Reference: patent publication US20250270198A1, “PYRIDONE COMPOUNDS AS TRPA1 INHIBITORS” (D. E. Shaw Research, LLC, priority 2022, published 2025)

Key:
[1] = target: hERG channel (Homo sapiens (Human), UniProt Q12809); experiment: hERG activity, automated patch clamp (SyncroPatch); type: cell-based; settings: CHO-K1 cells stably expressing hERG, tail current at −50 mV, compounds at 50 μM and 100 μM
Procedure: This assay was used to evaluate the disclosed compounds' inhibition activities against the hERG channel.
CHO-K1 cells stably expressing hERG were grown in Ham's F-12 Medium with Glutamine containing 10% heat-inactivated FBS, 1% Penicillin/Streptomycin, Hygromycin (100 μg/ml), and G418 (100 μg/ml). Cells used for electrophysiology were plated in plastic culture flasks and grown at 37° C. in a 5% CO2-humidified incubator per ChanPharm SOP. Stocks were maintained in cryogenic storage.
The cells were bathed in an extracellular solution containing 140 mM NaCl, 4 mM KCl, 2 mM CaCl2), 1 mM MgCl2, 5 mM Glucose, and 10 mM HEPES; pH adjusted to 7.4 with NaOH; 295-305 mOsm. The internal solution contained 10 mM KCl, 110 mM KF, 10 mM NaCl, 10 mM EGTA, 10 mM HEPES; pH adjusted to 7.2 with KOH; 280-285 mOsm. All compounds were dissolved in DMSO at 30 mM. Compound stock solutions were freshly diluted with external solution to concentrations of 50 μM and 100 μM. The highest content of DMSO […].
All experiments were performed at room temperature. Each cell acted as its own control. In preparation for a recording session, intracellular solution (see above) was loaded into the intracellular compartments of the automated patch clamp platform SyncroPatch (Nanion) chip and the cell suspension was pipetted into the extracellular compartments. After establishment of a whole-cell configuration, membrane current recordings, and compound application were enabled by means of the SyncroPatch. hERG currents were elicited by a voltage pulse pattern with fixed amplitudes (depolarization: +20 mV amplitude, 300 ms duration; repolarization: −50 mV, 300 ms duration) repeated at 3 s intervals from a holding potential of −80 mV.
Data acquisition and analysis were performed using DataControl384 (Nanion's proprietary software). To determine the (percentage) inhibition, the last single pulse in the pulse train (i.e., the repolarization step to −50 mV; tail current) at a given compound concentration was used. AUC and peak values, obtained in the presence of compound, were normalized to control values in the absence of compound.

[2] = target: human TRPA1 channel (Homo sapiens (Human), UniProt O75762); experiment: TRPA1 inhibitor activity, automated patch clamp (SyncroPatch); type: cell-based; settings: CHO cells inducibly expressing human TRPA1, currents elicited by carvacrol (300 μM), holding potential −60 mV
human TRPA1 channel, sequence (O75762 whole entry): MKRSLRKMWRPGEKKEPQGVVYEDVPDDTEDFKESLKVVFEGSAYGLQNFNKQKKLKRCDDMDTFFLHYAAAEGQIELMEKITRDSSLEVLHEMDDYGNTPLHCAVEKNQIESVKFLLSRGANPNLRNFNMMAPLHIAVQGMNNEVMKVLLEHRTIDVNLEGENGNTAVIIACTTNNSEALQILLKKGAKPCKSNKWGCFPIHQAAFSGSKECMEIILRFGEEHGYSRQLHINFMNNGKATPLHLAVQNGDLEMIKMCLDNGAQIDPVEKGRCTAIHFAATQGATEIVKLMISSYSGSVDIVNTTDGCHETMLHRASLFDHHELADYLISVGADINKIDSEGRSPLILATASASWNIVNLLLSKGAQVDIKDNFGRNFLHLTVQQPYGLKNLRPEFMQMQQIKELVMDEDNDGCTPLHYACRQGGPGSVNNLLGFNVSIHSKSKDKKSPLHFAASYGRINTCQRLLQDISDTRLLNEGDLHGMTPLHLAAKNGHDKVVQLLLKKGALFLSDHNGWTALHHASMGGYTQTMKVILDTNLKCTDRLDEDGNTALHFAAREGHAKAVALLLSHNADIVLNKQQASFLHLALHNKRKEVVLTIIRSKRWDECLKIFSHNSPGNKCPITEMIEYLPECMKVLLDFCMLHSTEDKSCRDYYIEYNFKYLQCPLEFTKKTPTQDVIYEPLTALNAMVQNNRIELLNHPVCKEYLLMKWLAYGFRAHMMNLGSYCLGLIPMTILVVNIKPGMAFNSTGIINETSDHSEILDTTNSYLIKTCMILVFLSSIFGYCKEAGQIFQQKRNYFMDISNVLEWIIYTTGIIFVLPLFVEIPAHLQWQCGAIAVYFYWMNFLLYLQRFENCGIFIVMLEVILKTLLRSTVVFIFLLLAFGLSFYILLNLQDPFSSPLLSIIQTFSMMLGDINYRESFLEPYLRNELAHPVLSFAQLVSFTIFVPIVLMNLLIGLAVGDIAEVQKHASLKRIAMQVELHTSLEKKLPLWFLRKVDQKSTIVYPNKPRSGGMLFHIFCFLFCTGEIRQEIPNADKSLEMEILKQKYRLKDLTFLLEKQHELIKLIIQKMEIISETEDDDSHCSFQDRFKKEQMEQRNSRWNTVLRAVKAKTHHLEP
Procedure: This assay was used to evaluate the disclosed compounds' inhibition activities against the human TRPA1 channel.
CHO cells inducibly expressing human TRPA1 were grown in DMEM containing 10% heat-inactivated FBS, 1 mM Sodium Pyruvate, 2 mM L-Glutamine, Zeocin (100 μg/ml) and Blasticidin (10 μg/ml). Expression was induced by addition of Doxycycline (1 μg/ml) 24 hours before experiments. Cells used for electrophysiology were plated in plastic culture flasks and grown at 37° C. in a 5% CO2-humidified tissue culture incubator per ChanPharm SOP. Stocks were maintained in cryogenic storage.
The cells were bathed in an extracellular solution containing 80 mM NaCl, 60 mM NMDG, 4 mM KCl, 2 mM CaCl2), 6 mM MgCl2, 5 mM Glucose. 10 mM HEPES, 3 mM HEDTA; pH adjusted to 7.4 with NaOH; 305-310 mOsm. All compounds were dissolved in DMSO at 30 mM. The internal solution contained 10 mM CsCl, 110 mM CsF, 10 mM NaCl, 10 mM EGTA, 10 mM HEPES, 4 mM MgATP, 0.25 mM NaGTP, 4 mM BAPTA; pH adjusted to 7.2 with CsOH; 285-290 mOsm. Compound stock solutions were freshly diluted with external solution to concentrations of 3 nM, 10 nM 30 nM, 100 nM, 300 nM, 1 μM, 3 μM, 10 μM, and 30 μM. The highest content of DMSO (0.1%) was present at 30 μM.
All experiments were performed at room temperature. Each cell acted as its own control. In preparation for a current recording session, intracellular solution (see above) was loaded into the intracellular compartments of the automated patch clamp platform SyncroPatch (Nanion) chip and the cell suspension was pipetted into the extracellular compartments. After establishment of a whole-cell configuration, membrane current recordings and compound application were enabled by means of the SyncroPatch. TRPA1 currents were elicited by application of carvacrol (300 μM) at a constant holding potential of −60 mV (see Table A below).
To determine IC50 values, AUC and peak values, obtained in the presence of a given compound concentration, were normalized to control values in absence of compound. Using DataControl384 (Nanion's proprietary software), IC50 values were derived by fitting the normalized data to the Hill equation.

hERG channel, sequence (Q12809 whole entry): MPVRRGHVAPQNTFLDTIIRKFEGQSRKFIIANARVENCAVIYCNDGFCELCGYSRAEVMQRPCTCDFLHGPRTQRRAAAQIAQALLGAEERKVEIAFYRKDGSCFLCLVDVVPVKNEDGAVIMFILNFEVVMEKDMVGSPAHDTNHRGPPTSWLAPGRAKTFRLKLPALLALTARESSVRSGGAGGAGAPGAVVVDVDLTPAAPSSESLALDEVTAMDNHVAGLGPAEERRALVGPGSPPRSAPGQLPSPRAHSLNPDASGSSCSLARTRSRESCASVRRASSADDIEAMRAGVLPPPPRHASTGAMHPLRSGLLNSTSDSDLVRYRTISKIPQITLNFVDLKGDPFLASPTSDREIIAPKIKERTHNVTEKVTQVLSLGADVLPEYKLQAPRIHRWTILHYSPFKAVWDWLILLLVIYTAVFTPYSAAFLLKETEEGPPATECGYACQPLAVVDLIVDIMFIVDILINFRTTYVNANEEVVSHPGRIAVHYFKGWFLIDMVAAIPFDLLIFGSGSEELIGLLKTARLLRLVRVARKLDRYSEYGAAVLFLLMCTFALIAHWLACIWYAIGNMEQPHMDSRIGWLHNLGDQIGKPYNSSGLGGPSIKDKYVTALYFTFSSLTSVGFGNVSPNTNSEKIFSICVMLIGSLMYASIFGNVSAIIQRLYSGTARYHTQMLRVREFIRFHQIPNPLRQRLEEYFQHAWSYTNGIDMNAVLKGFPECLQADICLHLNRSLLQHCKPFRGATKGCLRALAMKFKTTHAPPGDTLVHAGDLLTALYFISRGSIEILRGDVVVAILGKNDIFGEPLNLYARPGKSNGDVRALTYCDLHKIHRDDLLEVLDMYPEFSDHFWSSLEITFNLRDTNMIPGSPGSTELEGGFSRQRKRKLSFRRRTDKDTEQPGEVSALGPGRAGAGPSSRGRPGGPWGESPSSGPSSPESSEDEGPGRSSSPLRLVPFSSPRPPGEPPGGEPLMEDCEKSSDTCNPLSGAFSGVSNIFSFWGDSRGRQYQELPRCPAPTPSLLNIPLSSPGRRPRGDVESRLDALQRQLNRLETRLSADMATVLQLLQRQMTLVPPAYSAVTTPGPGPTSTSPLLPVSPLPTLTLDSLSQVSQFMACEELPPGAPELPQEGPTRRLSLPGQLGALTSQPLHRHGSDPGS

SMILES | IC50 ([1]; Table 4) [µM] | IC50 ([2]; Table 4) [µM] | IC50 ([1]; Table 5) [µM] | IC50 ([2]; Table 5) [µM]
Cc1cc(C(N)=O)cn(Cc2nc(CCc3ccc(Cl)cc3)no2)c1=O [Compound 4, 1-({3-[2-(4-chlorophenyl)ethyl]-1,2,4-oxadiazol-5-yl}methyl)-5-methyl-6-oxopyridine-3-carboxamide] | > 50 | < 1 | – | –
NC(=O)c1cc(Cl)c(=O)n(Cc2nc(CCc3ccc(Cl)cc3)no2)c1 [Compound 6, 5-chloro-1-((3-(4-chlorophenethyl)-1,2,4-oxadiazol-5-yl)methyl)-6-oxo-1,6-dihydropyridine-3-carboxamide] | < 50 | < 0.3 | – | –
Cc1cc(-c2cn[nH]c2)cn(Cc2nc(CCc3ccc(Cl)cc3)no2)c1=O [Compound 8, 1-((3-(4-chlorophenethyl)-1,2,4-oxadiazol-5-yl)methyl)-3-methyl-5-(1H-pyrazol-4-yl)pyridin-2(1H)-one] | < 50 | < 10 | – | –
Nc1ccn(Cc2nc(C[C@H](O)c3ccc(Cl)cc3)no2)c(=O)c1Cl [Compound 14, (S)-4-amino-3-chloro-1-((3-(2-(4-chlorophenyl)-2-hydroxyethyl)-1,2,4-oxadiazol-5-yl)methyl)pyridin-2(1H)-one] | > 50 | < 3 | – | –
O=c1c(Cl)c(CO)ccn1Cc1nc(C[C@H](O)c2ccc(Cl)cc2)no1 [Compound 17, (S)-3-chloro-1-((3-(2-(4-chlorophenyl)-2-hydroxyethyl)-1,2,4-oxadiazol-5-yl)methyl)-4-(hydroxymethyl)pyridin-2(1H)-one] | > 50 | < 1 | – | –
Cn1cc(-c2ccn(Cc3nc(C[C@H](O)c4ccc(Cl)cc4)no3)c(=O)c2Cl)cn1 [Compound 18, (S)-3-chloro-1-((3-(2-(4-chlorophenyl)-2-hydroxyethyl)-1,2,4-oxadiazol-5-yl)methyl)-4-(1-methyl-1H-pyrazol-4-yl)pyridin-2(1H)-one] | < 50 | < 1 | – | –
O=c1c(Cl)nccn1Cc1nc(C[C@H](O)c2ccc(Cl)cc2)no1 [Compound 22, (S)-3-chloro-1-((3-(2-(4-chlorophenyl)-2-hydroxyethyl)-1,2,4-oxadiazol-5-yl)methyl)pyrazin-2(1H)-one] | < 50 | < 0.3 | – | –
NC(=O)c1cn(Cc2nc(C[C@H](O)c3ccc(Cl)cc3)no2)c(=O)c(Cl)n1 [Compound 26, (S)-6-chloro-4-((3-(2-(4-chlorophenyl)-2-hydroxyethyl)-1,2,4-oxadiazol-5-yl)methyl)-5-oxo-4,5-dihydropyrazine-2-carboxamide] | > 50 | < 1 | – | –
Cc1nc(Br)cn(Cc2nc(C[C@H](O)c3ccc(Cl)cc3)no2)c1=O [Compound 27, (S)-5-bromo-1-((3-(2-(4-chlorophenyl)-2-hydroxyethyl)-1,2,4-oxadiazol-5-yl)methyl)-3-methylpyrazin-2(1H)-one] | < 50 | < 0.3 | – | –
Cc1nc(C(N)=O)cn(Cc2nc(C[C@H](O)c3ccc(Cl)cc3)no2)c1=O [Compound 29, 4-({3-[(2S)-2-(4-chlorophenyl)-2-hydroxyethyl]-1,2,4-oxadiazol-5-yl}methyl)-6-methyl-5-oxopyrazine-2-carboxamide] | > 50 | < 0.3 | – | –
Cc1c(CN)ncn(Cc2nc(CCc3ccc(Cl)cc3)no2)c1=O [Compound 30, 6-(aminomethyl)-3-((3-(4-chlorophenethyl)-1,2,4-oxadiazol-5-yl)methyl)-5-methylpyrimidin-4(3H)-one] | < 50 | < 0.3 | – | –
O=c1c(Cl)c(-c2cn[nH]c2)ncn1Cc1nc(C[C@H](O)c2ccc(Cl)cc2)no1 [Compound 35, (S)-5-chloro-3-((3-(2-(4-chlorophenyl)-2-hydroxyethyl)-1,2,4-oxadiazol-5-yl)methyl)-6-(1H-pyrazol-4-yl)pyrimidin-4(3H)-one] | < 50 | < 0.3 | – | –
Cc1ncn(Cc2nc(C[C@H](O)c3ccc(Cl)cc3)no2)c(=O)c1Cl [Compound 36, (S)-5-chloro-3-((3-(2-(4-chlorophenyl)-2-hydroxyethyl)-1,2,4-oxadiazol-5-yl)methyl)-6-methylpyrimidin-4(3H)-one] | > 50 | < 0.1 | – | –
O=c1c(Cl)c(CO)ncn1Cc1nc(C[C@H](O)c2ccc(Cl)cc2)no1 [Compound 54, (S)-5-chloro-3-((3-(2-(4-chlorophenyl)-2-hydroxyethyl)-1,2,4-oxadiazol-5-yl)methyl)-6-(hydroxymethyl)pyrimidin-4(3H)-one] | – | – | > 50 | < 0.3
Cc1c(Cl)ncn(Cc2nc(C[C@H](O)c3ccc(Cl)cc3)no2)c1=O [Compound 58, (S)-6-chloro-3-((3-(2-(4-chlorophenyl)-2-hydroxyethyl)-1,2,4-oxadiazol-5-yl)methyl)-5-methylpyrimidin-4(3H)-one] | – | – | > 50 | < 0.1
N#Cc1ncn(Cc2nc(C[C@H](O)c3ccc(Cl)cc3)no2)c(=O)c1Cl [Compound 63, 5-chloro-1-({3-[(2S)-2-(4-chlorophenyl)-2-hydroxyethyl]-1,2,4-oxadiazol-5-yl}methyl)-6-oxopyrimidine-4-carbonitrile] | – | – | < 50 | < 0.1
Cc1c(-c2cn[nH]c2)ncn(Cc2nc(C[C@H](O)c3ccc(Cl)cc3)no2)c1=O [Compound 65, (S)-3-((3-(2-(4-chlorophenyl)-2-hydroxyethyl)-1,2,4-oxadiazol-5-yl)methyl)-5-methyl-6-(1H-pyrazol-4-yl)pyrimidin-4(3H)-one] | – | – | < 50 | < 0.3
Nc1c(Cl)ncn(Cc2nc(C[C@H](O)c3ccc(Cl)cc3)no2)c1=O [Compound 66, (S)-5-amino-6-chloro-3-((3-(2-(4-chlorophenyl)-2-hydroxyethyl)-1,2,4-oxadiazol-5-yl)methyl)pyrimidin-4(3H)-one] | – | – | > 50 | < 0.3
O=c1c(Br)c(Cl)ncn1Cc1nc(C[C@H](O)c2ccc(Cl)cc2)no1 [Compound 67, (S)-5-bromo-6-chloro-3-((3-(2-(4-chlorophenyl)-2-hydroxyethyl)-1,2,4-oxadiazol-5-yl)methyl)pyrimidin-4(3H)-one] | – | – | < 50 | < 0.1
COc1ncn(Cc2nc(C[C@H](O)c3ccc(Cl)cc3)no2)c(=O)c1Cl [Compound 70, (S)-5-chloro-3-((3-(2-(4-chlorophenyl)-2-hydroxyethyl)-1,2,4-oxadiazol-5-yl)methyl)-6-methoxypyrimidin-4(3H)-one] | – | – | > 50 | < 0.3
Nc1ncc(Cl)c(=O)n1Cc1nc(C[C@H](O)c2ccc(Cl)cc2)no1 [Compound 71, (S)-2-amino-5-chloro-3-((3-(2-(4-chlorophenyl)-2-hydroxyethyl)-1,2,4-oxadiazol-5-yl)methyl)pyrimidin-4(3H)-one] | – | – | > 50 | < 0.1
